`NC1(C(=O)O)CCCCC1`: the logP is -1.87.

Consider `NC1(C(=O)O)CC1`, for which the logP is -2.78.

Regarding `O=C(O)C1CCCNC1` (stereo not drawn), the lipophilicity (logP) is -2.89.

On to `NCCC(=O)O`, for which the logP was -3.05.

With `O=C(O)CCN1CCCCC1`, the logP was -2.45.

Take `NCCCCCCCC(=O)O`: the lipophilicity (logP) is -2.55.

Consider `O=C(O)C1CCNCC1`, for which the logP was -3.05.

Take `CN(C)CC(=O)O`: the logP was -2.91.

With `CCC(N)C(=O)O` (stereo not drawn), the logP is -2.54.

In the case of `O=C(O)C1CCCCN1` (stereo not drawn), the logP is -2.31.

For the compound `NC1(C(=O)O)CCCC1`, the logP is -2.28.

On to `O=C(O)C1CCN1` (stereo not drawn), for which the logP was -2.84.

As to `NCCCCCCC(=O)O`, the logP was -3.03.

One may read the logP as the decadic logarithm of the partition coefficient of the neutral form, usually between octanol and water. The low end stands for lower lipophilicity, the high end for higher lipophilicity.
